Reference: PubChem BioAssay (NCI)
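Briefly, cells in 96-well plates were exposed to five compound concentrations for 48 h, and endpoints were estimated by linear interpolation. The concentration for 50% growth inhibition is given as GI50. Definition used: TGI = concentration required for complete inhibition of growth.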

Legend:
Test in all cases: growth of human tumour cells (NCI), 48 h
MALME-3M melanoma = system: MALME-3M melanoma
RPMI-8226 leukemia = system: RPMI-8226 leukemia
SNB-75 CNS = system: SNB-75 CNS
TK-10 renal = system: TK-10 renal
UACC-257 melanoma = system: UACC-257 melanoma
UACC-62 melanoma = system: UACC-62 melanoma
EKVX NSCLC = system: EKVX NSCLC
LOX IMVI melanoma = system: LOX IMVI melanoma
MCF7 breast = system: MCF7 breast
PC-3 prostate = system: PC-3 prostate

Compound | TGI (MALME-3M melanoma) [µM] | TGI (RPMI-8226 leukemia) [µM] | TGI (SNB-75 CNS) [µM] | TGI (TK-10 renal) [µM] | TGI (UACC-257 melanoma) [µM] | TGI (UACC-62 melanoma) [µM] | TGI (EKVX NSCLC) [µM] | TGI (LOX IMVI melanoma) [µM] | GI50 (EKVX NSCLC) [µM] | GI50 (LOX IMVI melanoma) [µM] | GI50 (MCF7 breast) [µM] | TGI (MCF7 breast) [µM] | GI50 (PC-3 prostate) [µM] | TGI (PC-3 prostate) [µM] | GI50 (RPMI-8226 leukemia) [µM] | GI50 (SNB-75 CNS) [µM] | GI50 (TK-10 renal) [µM] | GI50 (UACC-257 melanoma) [µM] | GI50 (UACC-62 melanoma) [µM] | GI50 (MALME-3M melanoma) [µM]
CC(=O)OC(=O)O/C=C\CCl | > 100 | > 100 | > 100 | > 100 | > 100 | > 100 | – | – | – | – | – | – | – | – | – | – | – | – | – | –
COC(=O)C(C(=O)C(N)=O)c1csc(-n2nc(-c3ccccc3)cc2-c2ccccc2)n1 (centres undefined) | > 31.6 | > 31.6 | > 31.6 | > 31.6 | > 31.6 | > 31.6 | > 31.6 | > 100 | – | – | – | – | – | – | – | – | – | – | – | –
O=C1CCC(=O)c2sccc2N1 | > 100 | > 100 | > 100 | > 100 | > 100 | – | > 100 | > 100 | – | – | – | – | – | – | – | – | – | – | – | –
O=CCCCC(Sc1ccccc1)Sc1ccccc1 | – | 48.6 | 35.9 | > 100 | 48.5 | 24.5 | > 100 | 26.6 | – | – | – | – | – | – | – | – | – | – | – | –
CC(C)N1C(C)[C@@H](c2ccccc2)O[P@]1(=O)CC1=CCCCC1 (some centres undefined) | > 100 | > 100 | > 100 | > 100 | > 100 | > 100 | > 100 | > 100 | – | – | – | – | – | – | – | – | – | – | – | –
CCOC(=O)c1c(C)n(Cc2ccccc2)c2c1cc1oc(=O)c(=O)n3cnc2c13 | – | 14.1 | > 50 | 42.6 | 48.3 | > 50 | 39.7 | 22.3 | 13 | 8.74 | 17.7 | > 50 | 10.3 | > 50 | 1.86 | 28.5 | 15.7 | 17 | 16.6 | –
COc1ccc2c(c1)c1c3n2CCNN=C3CCC1 | > 100 | > 100 | > 100 | > 86.9 | > 100 | > 100 | > 100 | > 100 | – | – | – | – | – | – | – | – | – | – | – | –
N#CC(C(=O)CCCC(=O)Nc1ccc(Cl)cc1Cl)c1ccc(Cl)cc1 (centres undefined) | > 100 | > 100 | > 100 | > 100 | > 100 | > 100 | – | > 100 | – | – | – | – | – | – | – | – | – | – | – | –
H-QIYKKYRTWYRKAWKVLGKV-NH2 | – | 77.7 | 22.5 | 29.8 | 51.6 | 4.74 | 11.7 | > 100 | 3.04 | 23.7 | – | – | 3.82 | 20 | 6.85 | 6.06 | 6.35 | 13.8 | 2.08 | –
O=C(/C=C/C1C(=O)NC(=O)NC1=O)CC(=O)C(=O)Nc1cc(Cl)c(Cl)cc1Cl | > 100 | > 100 | > 100 | > 100 | > 100 | > 100 | > 100 | > 100 | – | – | – | – | – | – | – | – | – | – | – | –
Cc1ccc(/C=N/NS(=O)(=O)c2ccccc2)c(C)c1 | > 100 | > 100 | > 100 | > 100 | > 100 | > 100 | > 100 | > 100 | – | – | – | – | – | – | – | – | – | – | – | –
Cc1cc(Nc2nc(-c3ccncc3)nc3ccccc23)n[nH]1 | > 100 | > 100 | – | > 100 | > 100 | – | – | > 100 | – | 2.69 | 8.18 | > 100 | – | – | > 100 | – | 2.07 | 48 | – | > 100
[CH3][Sn]1([CH3])[O]CC(COc2cc(Cl)c(Cl)cc2Cl)[O]1 (centres undefined) | > 100 | > 100 | 68.8 | > 100 | > 100 | > 100 | > 100 | > 100 | 55.9 | > 100 | – | – | – | – | > 100 | 23.1 | > 100 | 99 | 40.7 | > 100
C/C(CC(=O)Nc1cccc([N+](=O)[O-])c1)=N\NC(=O)CC#N | > 100 | > 100 | > 100 | > 100 | > 100 | > 100 | > 100 | > 100 | – | – | – | – | – | – | – | – | – | – | – | –
O=c1c2ccccc2nc(-c2ccccc2)n1NC(=S)Nc1cccc(Cl)c1 | > 100 | > 100 | 59.6 | > 100 | > 100 | > 100 | – | > 100 | – | – | – | – | – | – | – | – | – | – | – | –
CC(=O)Nc1ccc(-c2nnc(SCC(=O)Nc3ccc(Cl)cc3)o2)cc1 | 29.4 | > 100 | 39.7 | 32.4 | 40.9 | 20.2 | 38.4 | 22.4 | – | – | – | – | – | – | – | – | – | – | – | –
c1ccc(-c2ccnc3c2ccc2c(-c4ccccc4)ccnc23)cc1 | 13.5 | – | 9.43 | 0.994 | 5.5 | 2.25 | 5.53 | 14.8 | – | – | – | – | – | – | – | – | – | – | – | –
COc1ccc(C)cc1C1CCC(=O)O1 (centres undefined) | > 100 | > 100 | > 100 | > 100 | > 100 | > 100 | > 100 | > 100 | – | – | – | – | – | – | – | – | – | – | – | –
NS(=O)(=O)c1ccc(NC(=O)c2cccc(NC3=C(Cl)C(=O)N(Cc4ccccc4)C3=O)c2)cc1 | – | 14.7 | 45.3 | 31.4 | 29.4 | 22.9 | 38.8 | 16.1 | 17.6 | 3.54 | 3.61 | 14.6 | 6.57 | 29 | 3.51 | 19.4 | 15.2 | 14.7 | 9.05 | –
O=S1(=O)c2ccccc2N=C(c2ccccc2Cl)CC1c1ccc(F)cc1 (centres undefined) | 36.8 | 14.4 | 47.8 | 50.4 | 24.7 | 32 | 36.2 | 34.2 | – | – | – | – | – | – | – | – | – | – | – | –
Cc1cc2nc(-c3c(F)cccc3Cl)n(Cc3c(F)cccc3Cl)c2cc1C | – | > 100 | > 100 | 46.5 | 38.3 | 19.3 | – | 30.2 | – | 13.5 | 12.8 | > 100 | 3.44 | 12.6 | 16.3 | 45.5 | 15.1 | 16.4 | 6.41 | –
